Experimental data reported in patent US20100292306A1, “Compositions And Methods For The Treatment Of Muscular Dystrophy” (priority 2005, published 2010).
“Also recorded” adds a separate entry of the source.

Experiments:
nuclear NF-κB activation = conditions: long term treatment; Durham et al. (2006); cited from earlier work
[1] = Observation of viability, side effects and body weight during treatment
nuclear NFκB = test: EMSA of nuclear NFκB binding in costal diaphragm nuclear extracts after single injection; format: in vivo, mdx mice; conditions: sulfasalazine 100 mg/kg ip single injection, 3 hours, mdx 3 to 3.5 months
Experimental: MDX mice aged 3 to 3.5 months were injected with either sulfasalazine (SS; 100 mg/kg, ip) or vehicle (HEPES Ringer; in mM: 147.5 NaCl, 5 KCl, 2 CaCl2, 11 glucose, 5 HEPES, pH 7.35) and euthanized at 3 hours post-injection. The costal diaphragms were removed and flash frozen before beginning the extract procedure. Nuclear and cytosolic extracts were obtained using a procedure slightly modified from that described in Carlson et al. (2005) and Kumar and Boriek (2003). […] Protein determinations were determined by the method of Lowry using bovine serum albumin standards (20 μg nuclear protein was added to each lane).
; in mM: 147.5 NaCl, 5 KCl, 2 CaCl2, 11 glucose, 5 HEPES, pH 7.35; 0.1% DMSO) and euthanized at 3 hours post-injection. […] Protein determinations were determined by the method of Lowry using bovine serum albumin standards (20 μg nuclear protein was added to each lane).

TNFα = test: ELISA of TNFα in cytosolic muscle extracts after single sulfasalazine injection; format: in vivo, mdx mice; conditions: mdx costal diaphragm; SS 100 mg/kg ip single injection, 3 hours
Text: (§1) Each diaphragm was divided into costal and crural regions which were processed and analyzed separately. After determining protein concentrations for each of the cytosolic and nuclear extracts (Lowry assay), samples of each extract were used to obtain standard ELISA determinations of mouse TNFα, IL-6, and IL-1β using standard procedures (Assay Designs, Inc.). These particular NFκB products were chosen because of their role in the inflammatory reaction and previously published results indicating the presence of these cytokines in nondystrophic skeletal muscle homogenates (Molina et al., Neuroimmunomodulation, 4, 28-36, 1997; Jonsdottir et al., J. of Physiol. (Lond.), 528.1, 157-163, 2000; Lang et al., Shock, 19(6), 538-546, 2003).
(§2) MDX mice aged 3 to 3.5 months were injected with either SS (100 mg/kg) or vehicle (HEPES Ringer; in mM: 147.5 NaCl, 5 KCl, 2 CaCl2, 11 glucose, 5 HEPES, pH 7.35) and euthanized at 3 hours post-injection. The costal and crural diaphragms and the gastrocnemius muscle were then immediately removed and flash frozen before beginning the procedure to obtain nuclear and cytosolic extracts as described in Example 10. ELISA determinations of TNFα, Il1-β, and IL6 were determined as described in Example 9.

IL1-β = test: ELISA of IL1-β in cytosolic muscle extracts after single sulfasalazine injection; format: in vivo, mdx mice; conditions: SS 100 mg/kg ip single injection, 3 hours
Text: as §1, §2

IL6 = test: ELISA of IL6 in cytosolic muscle extracts after single sulfasalazine injection; format: in vivo, mdx mice; conditions: costal and crural diaphragms; SS 100 mg/kg ip single injection, 3 hours
Text: as §1, §2

mdx TS muscle fibers = test: Intracellular recording of resting membrane potential in TS muscle fibers after chronic treatment; format: in vivo, mdx mice; conditions: sulfasalazine 100 mg/kg ip daily 68 days, vs vehicle littermate
[2] = test system: nondystrophic and mdx TS muscle fibers; test: Effect of Gd^3+ on resting membrane potential of isolated TS muscle preparations; format: cell-based, mice
Experimental: The effect of the Ca^2+ channel blocker, Gd^3+, on the resting membrane potential was examined in both nondystrophic and mdx TS muscle preparations. Gd^3+ blocks both nonselective cation channels and more Ca^2+-selective leak channels (Franco et al., 1991 and Yang and Sachs, 1989) and, at concentrations of 20-100 μM, eliminates fluorometric determinations of resting Ca^2+ influx in a variety of cells (Broad et al., 1999, Carlson and Geisbuhler, 2003, Cox et al., 2002 and Samadi et al., 2005). […]
The potential effect of Gd^3+ on resting potential was determined in several nondystrophic (5-17 months) and mdx (5-11.5 months) TS preparations by first recording from several cells in normal HEPES Ringer solution, and then adding 100 μM GdCl3 to the solution while recording continuously from a single fiber. After removing the electrode from the fiber, the resting potential of several additional fibers were determined in the presence of the lanthanide. The average resting potential in nondystrophic fibers bathed in normal HEPES Ringer was −50.1±1.4 (SE) mV, a value lower than that recorded in this laboratory from nondystrophic diaphragm (−63±1.3 mV, N=98 fibers, 5 weeks to 2 years of age; Carlson and Roshek, 2001).

For COc1cc(/C=C/C(=O)CC(=O)/C=C/c2ccc(O)c(OC)c2)ccc1O [curcumin, diferuloylmethane], the “nuclear NF-κB activation in mdx costal diaphragm” value (nuclear NF-κB activation) is listed as “did not reduce”.

In the case of O=C(O)c1cc(/N=N/c2ccc(S(=O)(=O)Nc3ccccn3)cc2)ccc1O [sulfasalazine, Sulfasalazine], the body weight ([1]; SS 100 mg/kg ip daily 68 days) is reported as “maintained their body weight”, the “side-effects of chronic treatment schedule” value ([1]; SS 100 mg/kg ip daily 68 days) is reported as “no obvious side-effects” and the “side effects after injection” value ([1]; SS 100 mg/kg ip, aside from 5 to 10 sec restlessness) is reported as “no obvious side effects”. For the same molecule, the “nuclear NFκB binding to consensus sequence / nuclear NF-kappaB activation” value (nuclear NFκB) was “may reduce”, the “nuclear NFκB binding to consensus sequence / nuclear NF-kappaB activation” value (nuclear NFκB; listed as SS) was “reduction” and the “expression of TNFα in cytosolic extracts” value (TNFα) was “reduced”. For the same molecule, the “expression of IL1-β in cytosolic extracts” value (IL1-β) was “did not reduce; also recorded: not influenced”, the “expression of IL6 in cytosolic extracts” value (IL6) was “did reduce; also recorded: reduced” and the “resting potential of TS muscle fibers” value (mdx TS muscle fibers) was “significantly improves”. For the same molecule, the “resting potential of TS muscle fibers” value (mdx TS muscle fibers; listed as SS) was “significantly improved”.

With [Cl][Gd]([Cl])[Cl] [Gd^3+, GdCl3] the “change in resting potential, total sample of fibers” value ([2]; 100 μM GdCl3, failed to reach statistical significance in nondystrophic or mdx) was “slight hyperpolarization” and the “effect on resting potential when added during recording” value ([2]; 100 μM GdCl3 added while recording from nondystrophic or mdx fibers) was “No effect”.
